Values joined by “and” are separate entries in the source; they are usually repeats but may differ in a detail not shown here. Identical values can stand only once. No end group written: not given here.
Tests used:
[1] = test system: PASMC; assay: cAMP measurement in PASMC (cyclic AMP ELISA); assay type: cell-based; conditions: for cAMP +/− SD: 20 min; for cyclic AMP content of PASMC, effect in words: analogues compared with VIP
Method: Effects of VIP and the peptides according to the invention are mediated by specific G-protein coupled receptors. Three distinct receptor subtypes, with differing affinity for the peptides, have been cloned and characterized as receptors 1 and 2 (VPAC1 and VPAC2) and pituitary adenylate cyclase activating polypeptide receptor (PAC1). The secondary messenger is cyclic adenosine mono phosphate (CAMP). […] Cells derived from pulmonary artery (PASMC) were seeded in 24 well plates and cultured in DMEM containing 10% fetal calf serum (Gibco lifesciences, Karlsruhe), Penicillin (Gibco lifesciences, Karlsruhe, 100 U/ml) Streptomycin (Gibco lifesciences, Karlsruhe, 100 U/ml) to confluency. […] The incubation is stopped by rinsing cells with PBS and immediate lysis of cells with HCl (0.1N) containing 3-isobutyl 1-methyl xanthine (500 μM) to block further hydrolysis of cAMP. Lysed cells were centrifuged and the supernatants assayed for cAMP using an commercially available cyclic AMP ELISA (Assay Designs, Inc., Michigan, distribution by Bio Trend, Köln).

[2] = test system: monocytes after LPS stimulation; assay: Nitrite (NO) production by monocytes/macrophages after LPS stimulation; assay type: cell-based, human; conditions: for Nitrit +/− SD: LPS 100 nM + peptide 100 nM, 24 hours, no LPS 48, LPS alone 75; for anti-inflammatory response (NO production) on simultaneous incubation with LPS: after 24 hours, analogues compared with VIP
Method: Peripheral blood mononuclear cells were isolated from whole venous blood from 12 stable COPD patients and 12 healthy probands by Ficoll density gradient centrifugation. Monocytes were differentiated in RPMI-1640 medium supplemented with 5% FCS, antibiotics and 10^−8 M 1,25-dihydroxycholecalciferol (Sigma) in a humidified atmosphere with 5% CO2 at 37° C.
For infection simulation, macrophage stimulation and experimental in vivo treatment the differentiated cells were incubated either with LPS, with LPS and SEQ ID No.:1 (VIP) or SEQ ID No.:2 (A-15) or SEQ ID No.:3 (A-18), or with medium alone for control.
To test the hypothesis whether or not the macrophages utilize the VIP-signaling pathway to modulate and limit the immune response, the inflammation reaction in vitro was stimulated and NO (produced by iNOS) production by the cells was measured under inflammation and under in vitro therapy with VIP and the peptides according to the invention (SEQ ID Nos 2 and 3). NOS increased dramatically by LPS after 24 hours. […] This anti-inflammatory response was better by both VIP-analogues according to SEQ ID Nos. 2 and 3.

[3] = test system: COPD patients; assay: Phase II double-blind, randomized, placebo-controlled clinical trial of inhaled VIP in COPD; conditions: VIP (n = 15)
Method: Chronic obstructive pulmonary disease (COPD) is characterised by progressive airflow limitation associated with chronic inflammation. […] The efficacy and safety of VIP in patients was assessed with moderate to severe COPD.
The present double-blind, randomized, placebo-controlled study was undertaken in an outpatient setting. COPD patients (n=34) were randomly assigned VIP 50 μg (n=17), or placebo (n=17), given per inhalation, 4 times daily for 12 weeks. VIP serum concentration was measured in all patients. Primary outcomes were health-related quality of life and exercise capacity. Secondary outcomes included the lung function parameters and COPD exacerbations.

| Molecule | Nitrit +/− SD [2] | anti-inflammatory response (NO production) on simultaneous incubation with LPS [2] | cyclic AMP content of PASMC, effect in words [1] | cAMP +/− SD ([1]; peptide 1 nM + IBMX 500 μM) | cAMP +/− SD ([1]; peptide 1 nM, without IBMX) | cAMP +/− SD ([1]; peptide 10 nM + IBMX 500 μM) | cAMP +/− SD ([1]; peptide 10 nM, without IBMX) | cAMP +/− SD ([1]; peptide 100 nM + IBMX 500 μM) | cAMP +/− SD ([1]; peptide 100 nM, without IBMX) | other results |
| --- | --- | --- | --- | --- | --- | --- | --- | --- | --- | --- |
| CC(C)Cn1c(=O)n(C)c(=O)c2[nH]cnc21 [IBMX, 3-isobutyl 1-methyl xanthine, reference compound] |  |  |  |  |  |  |  |  |  | cAMP +/− SD ([1]; IBMX 500 μM alone): 16.37 pmol/mL and 17.16 pmol/mL and 15.91 pmol/mL |
| His (Ac)-Ser-Asp-Ala-Val-Phe-Thr-Asp-Asn-Tyr-Thr-Arg-Leu-Arg-Lys-Gln-Met-Ala-Val-Lys-Lys-Tyr-Leu-Asn-Ser-Val-Leu-Asn ({Ac-H2N}-SDAVFTDNYTRLRKQMAVKKYLNSVLN; not fully specified (residue 16); printed as His (Ac)-Ser-Asp-Ala-Val-Phe-Thr-Asp-Asn-Tyr-Thr-Arg-Leu-Arg-Lys-Gln-Met-Ala-Val-Lys-Lys-Tyr-Leu-Asn-Ser-Val-Leu-Asn) [Pep - 18] | 19 µmol | better | Higher increase | 36.66 pmol/mL | 14.83 pmol/mL | 37.00 pmol/mL | 19.45 pmol/mL | 46.42 pmol/mL | 28.43 pmol/mL |  |
| CC[C@H](C)[C@H](NC(=O)[C@H](CO)NC(=O)[C@H](CC(N)=O)NC(=O)[C@H](CC(C)C)NC(=O)[C@H](Cc1ccc(O)cc1)NC(=O)[C@H](CCCCN)NC(=O)[C@H](CCCCN)NC(=O)[C@@H](NC(=O)[C@H](C)NC(=O)[C@H](CCSC)NC(=O)[C@H](CCC(N)=O)NC(=O)[C@H](CCCCN)NC(=O)[C@H](CCCN=C(N)N)NC(=O)[C@H](CC(C)C)NC(=O)[C@H](CCCN=C(N)N)NC(=O)[C@@H](NC(=O)[C@H](Cc1ccc(O)cc1)NC(=O)[C@H](CC(N)=O)NC(=O)[C@H](CC(=O)O)NC(=O)[C@@H](NC(=O)[C@H](Cc1ccccc1)NC(=O)[C@@H](NC(=O)[C@H](C)NC(=O)[C@H](CC(=O)O)NC(=O)[C@H](CO)NC(=O)[C@@H](N)Cc1c[nH]cn1)C(C)C)[C@@H](C)O)[C@@H](C)O)C(C)C)C(=O)N[C@@H](CC(C)C)C(=O)N[C@@H](CC(N)=O)C(N)=O [VIP] |  |  |  |  |  |  |  |  |  | Adverse events: COPD exacerbation, number [3]: 8; Adverse events: COPD exacerbation, percent [3]: (53.3%); Adverse events: Diarrhoea NOS, number [3]: 0; Adverse events: Diarrhoea NOS, percent [3]: (0%); Adverse events: Nasopharyngitis, number [3]: 0; Adverse events: Nasopharyngitis, percent [3]: (0%); Adverse events: Nausea, number [3]: 0; Adverse events: Nausea, percent [3]: (0%); Adverse events: Upper respiratory tract infection, number [3]: 1; Adverse events: Upper respiratory tract infection, percent [3]: (6.7%) |
| His (Ac)-Ser-Asp-Ala-Val-Phe-Thr-Asp-Asn-Tyr-Thr-Arg-Leu-Arg-Lys-Gln-Met (O)-Ala-Val-Lys-Lys-Tyr-Leu-Asn-Ser-Ile-Leu-Asn [Pep - 15] | 16 µmol | better | Higher increase | 26.45 pmol/mL | 13.30 pmol/mL | 27.00 pmol/mL | 16.30 pmol/mL | 36.67 pmol/mL | 23.30 pmol/mL |  |
| C=C[C@@]1(C)CC(=O)[C@]2(O)[C@@]3(C)[C@@H](O)CCC(C)(C)[C@@H]3[C@H](O)[C@H](OC(C)=O)[C@@]2(C)O1 [Forskolin, reference compound] |  |  |  |  |  |  |  |  |  | cAMP +/− SD ([1]; Forskolin 10 μM + IBMX 500 μM): 41.10 pmol/mL and 47.81 pmol/mL and 58.00 pmol/mL |

Reference: patent US8329640B2, “Peptides with improved properties having the biological activity of vasoactive intestinal peptide (VIP) and their use for the treatment of lung diseases” (priority 2007, dated 2012)
